Assay results as given in ChEMBL document CHEMBL1201862, “PubChem BioAssay data set” (2004).
Calls of active or inactive are those of the source.

Assays:
Format in all cases: functional
[1] = target: Cyclin-dependent kinase 5/CDK5 activator 1 (Homo sapiens, UniProt Q00535); assay: inhibitors of human CDK5 activity – biochemical, microfluidic mobility shift, dry powder, set 2, selectivity assay for GSK3beta inhibitor project, dose response (AID 623979)
[2] = target: Glycogen synthase kinase-3 alpha (Homo sapiens, UniProt P49840); assay: GSK3A enzyme blockers, homolog specificity check – biochemical, microfluidics, dry powder samples, set 2, selectivity assay for GSK3beta inhibitor project, dose response (AID 623978)
[3] = target: Glycogen synthase kinase-3 beta (Homo sapiens, UniProt P49841); assay: inhibition of human GSK3B activity – biochemical, microfluidics, dry powder samples, set 2, dose response (AID 623989)

Measured: AC50

Sequence of Glycogen synthase kinase-3 beta (P49841 whole entry): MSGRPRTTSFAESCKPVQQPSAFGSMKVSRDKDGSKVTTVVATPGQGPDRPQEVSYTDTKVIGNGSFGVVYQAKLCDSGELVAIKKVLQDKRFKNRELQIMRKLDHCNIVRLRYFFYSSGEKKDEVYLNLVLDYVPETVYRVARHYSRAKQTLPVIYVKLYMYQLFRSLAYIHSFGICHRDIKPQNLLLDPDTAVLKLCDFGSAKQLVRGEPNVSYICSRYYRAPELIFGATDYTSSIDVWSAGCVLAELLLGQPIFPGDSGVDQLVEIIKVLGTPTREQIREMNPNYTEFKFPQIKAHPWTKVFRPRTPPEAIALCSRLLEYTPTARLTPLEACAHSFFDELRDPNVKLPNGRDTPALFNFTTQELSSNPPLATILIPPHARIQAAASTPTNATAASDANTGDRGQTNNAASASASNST
Sequence of Cyclin-dependent kinase 5/CDK5 activator 1 (Q00535 whole entry): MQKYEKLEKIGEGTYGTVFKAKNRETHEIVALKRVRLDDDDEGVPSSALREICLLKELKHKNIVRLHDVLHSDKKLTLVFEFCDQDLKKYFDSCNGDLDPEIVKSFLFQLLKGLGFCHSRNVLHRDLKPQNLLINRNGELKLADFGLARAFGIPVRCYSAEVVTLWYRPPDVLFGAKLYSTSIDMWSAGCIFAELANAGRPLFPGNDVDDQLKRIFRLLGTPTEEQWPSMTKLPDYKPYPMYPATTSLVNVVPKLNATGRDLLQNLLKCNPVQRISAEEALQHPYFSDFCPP
Sequence of Cyclin-dependent kinase 5/CDK5 activator 1 (Q15078 whole entry, further chain): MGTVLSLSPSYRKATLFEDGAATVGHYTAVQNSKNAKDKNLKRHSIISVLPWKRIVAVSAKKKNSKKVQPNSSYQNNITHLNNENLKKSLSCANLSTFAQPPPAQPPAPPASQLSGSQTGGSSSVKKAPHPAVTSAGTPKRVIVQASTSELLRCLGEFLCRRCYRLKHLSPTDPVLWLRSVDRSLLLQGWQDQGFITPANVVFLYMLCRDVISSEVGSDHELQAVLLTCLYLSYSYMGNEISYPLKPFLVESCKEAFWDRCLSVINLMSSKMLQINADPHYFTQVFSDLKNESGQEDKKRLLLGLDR
Sequence of Glycogen synthase kinase-3 alpha (P49840 whole entry): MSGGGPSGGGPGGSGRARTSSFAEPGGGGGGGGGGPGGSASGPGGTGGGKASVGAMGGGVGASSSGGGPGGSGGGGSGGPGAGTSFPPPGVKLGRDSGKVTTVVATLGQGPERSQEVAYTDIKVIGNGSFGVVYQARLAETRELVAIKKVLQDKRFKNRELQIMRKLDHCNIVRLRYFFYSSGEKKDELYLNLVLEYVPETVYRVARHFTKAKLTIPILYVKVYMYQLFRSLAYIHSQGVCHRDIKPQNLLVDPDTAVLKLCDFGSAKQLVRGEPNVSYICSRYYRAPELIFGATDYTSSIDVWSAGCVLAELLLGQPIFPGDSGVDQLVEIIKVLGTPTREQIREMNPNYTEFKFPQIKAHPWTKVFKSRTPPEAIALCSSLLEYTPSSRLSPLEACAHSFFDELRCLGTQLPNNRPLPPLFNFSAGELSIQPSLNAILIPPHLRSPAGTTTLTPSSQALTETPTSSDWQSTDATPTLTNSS

Cc1cccc(C(=O)N[C@H]2C[C@@H](n3cnc(NC(=O)Cc4cccc5ccccc45)c3)C2)n1
active: [1] 38 nM | [2] 361 nM | [3] 107 nM
